Target: Factor D (Homo sapiens (Human), UniProt P00746)
Assay: Factor D esterolytic assay (Z-Lys-SBzl substrate, DTNB, 405 nm)
Format: biochemical
Conditions: Z-Lys-SBzl 1.29 mM, pH 7.5, 10% DMSO, tested a minimum of three times, read-out: Measured Ki (IC50) Value for Compounds: IC50
How it was run: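 Thioester hydrolysis (Z-Lys-SBzl, 1.29 mM) by human Factor D ([…]) detected through DTNB color at 405 nm over 600 sec, minus 690 nm background. Buffer: 100 mM HEPES pH 7.5, 500 mM NaCl, 10% DMSO; optional room-temperature preincubation before substrate. IC50 derived from percent rate inhibition; at least three runs.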

Sequence of Factor D (P00746 26-253): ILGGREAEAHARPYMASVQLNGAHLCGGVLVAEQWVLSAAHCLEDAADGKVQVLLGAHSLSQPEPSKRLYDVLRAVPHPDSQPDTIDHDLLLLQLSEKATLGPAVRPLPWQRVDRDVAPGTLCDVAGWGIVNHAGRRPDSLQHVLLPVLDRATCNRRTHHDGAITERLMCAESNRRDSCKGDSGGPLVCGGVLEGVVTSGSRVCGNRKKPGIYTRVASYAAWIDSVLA

Row | IC50 [µM] | Compound
1 | < 1 | NCc1cccc(-c2cc(COc3ccccc3CC(=O)O)cc3nccn23)c1 [Compound 107f, 2-(2-((5-(3-(aminomethyl)phenyl)imidazo[1,2-a]pyridin-7-yl)methoxy)phenyl)acetic acid]
2 | < 1 | CC(C)c1cc2cc(COc3ccccc3CC(=O)O)cc(-c3cccc(CN)c3)c2o1 [Compound 108f, 2-(2-((7-(3-(aminomethyl)phenyl)-2-isopropylbenzofuran-5-yl)methoxy)phenyl)acetic acid]
3 | < 1 | CC(C)n1ccc2c(-c3cccc(CN)c3)cc(COc3ccccc3CC(=O)O)cc21 [Compound 109g, 2-(2-((4-(3-(aminomethyl)phenyl)-1-isopropyl-1H-indol-6-yl)methoxy)phenyl)acetic acid]
4 | < 1 | NCc1ccnc(-c2cc(COc3ccccc3CC(=O)O)cc3ccoc23)c1 [Compound 110c, 2-(2-((7-(4-(aminomethyl)pyridin-2-yl)benzofuran-5-yl)methoxy)phenyl)acetic acid]
5 | < 1 | CC(C)n1ccc2c(-c3cccc(CN)c3F)cc(COc3ccccc3CC(=O)O)cc21 [Compound 111b, 2-(2-((4-(3-(aminomethyl)-2-fluorophenyl)-1-isopropyl-1H-indol-6-yl)methoxy)phenyl)acetic acid]
6 | < 1 | Cc1cc2cc(COc3ccccc3CC(=O)O)cc(-c3ccnc(CN)c3)c2o1 [Compound 112c, 2-(2-((7-(2-(aminomethyl)pyridin-4-yl)-2-methylbenzofuran-5-yl)methoxy)phenyl)acetic acid]
7 | < 1 | Cc1cc2cc(COc3ccccc3CC(=O)O)cc(-c3ccnc(CN)c3F)c2o1 [Compound 113c, 2-(2-((7-(2-(aminomethyl)-3-fluoropyridin-4-yl)-2-methylbenzofuran-5-yl)methoxy)phenyl)acetic acid]
8 | < 1 | NCc1cccc(-c2cc(COc3ccccc3CC(=O)O)cc3c(N)noc23)c1 [Compound 114j, 2-(2-((3-amino-7-(3-(aminomethyl)phenyl)benzo[d]isoxazol-5-yl)methoxy)phenyl)acetic acid]
9 | < 1 | NCc1cccc(-c2cc(COc3ccccc3CC(=O)O)cc3occc23)c1 [Compound 115f, 2-(2-((4-(3-(aminomethyl)phenyl)benzofuran-6-yl)methoxy)phenyl)acetic acid]
10 | < 1 | NCc1cccc(-c2cc(COc3ccccc3CC(=O)O)cc3sccc23)c1 [Compound 116f, 2-(2-((4-(3-(aminomethyl)phenyl)benzo[b]thiophen-6-yl)methoxy)phenyl)acetic acid]
11 | < 1 | NCc1cccc(-c2cc(COc3ccccc3CC(=O)O)cc3sccc23)c1F [Compound 117b, 2-(2-((4-(3-(aminomethyl)-2-fluorophenyl)benzo[b]thiophen-6-yl)methoxy)phenyl)acetic acid]
12 | < 1 | CC(C)n1ccc2c(-c3ccnc(CN)c3)cc(COc3ccccc3CC(=O)O)cc21 [Compound 118c, 2-(2-((4-(2-(aminomethyl)pyridin-4-yl)-1-isopropyl-1H-indol-6-yl)methoxy)phenyl)acetic acid]
13 | < 1 | NCc1cccc(-c2cc(COc3ccccc3CC(=O)O)nc3ccoc23)c1 [Compound 119e, 2-(2-((7-(3-(aminomethyl)phenyl)furo[3,2-b]pyridin-5-yl)methoxy)phenyl)acetic acid]
14 | < 1 | COCc1cc2cc(COc3ccccc3CC(=O)O)cc(-c3ccnc(CN)c3F)c2o1 [Compound 120c, 2-(2-((7-(2-(aminomethyl)-3-fluoropyridin-4-yl)-2-(methoxymethyl)benzofuran-5-yl)methoxy)phenyl)acetic acid]
15 | < 1 | CC(C)n1ccc2c(-c3ccnc(CN)c3F)cc(COc3ccccc3CC(=O)O)cc21 [Compound 121b, 2-(2-((4-(2-(aminomethyl)-3-fluoropyridin-4-yl)-1-isopropyl-1H-indol-6-yl)methoxy)phenyl)acetic acid]
16 | < 1 | NCc1cccc(-c2cc(COc3ccccc3CC(=O)O)cc3occc23)c1F [Compound 122b, 2-(2-((4-(3-(aminomethyl)-2-fluorophenyl)benzofuran-6-yl)methoxy)phenyl)acetic acid]
17 | < 1 | NCc1cc(-c2cc(COc3ccccc3CC(=O)O)cc3occc23)ccn1 [Compound 123d, 2-(2-((4-(2-(aminomethyl)pyridin-4-yl)benzofuran-6-yl)methoxy)phenyl)acetic acid]
18 | < 1 | NCc1cccc(-c2cc(COc3ccccc3CC(=O)O)cc3[nH]ncc23)c1F [Compound 124g, 2-(2-((4-(3-(aminomethyl)-2-fluorophenyl)-1H-indazol-6-yl)methoxy)phenyl)acetic acid]
19 | > 10 | NCc1cccc(-c2cc(C(=O)Nc3ccccc3CC(=O)O)cn3ccnc23)c1 [Compound 125c, 2-(2-(8-(3-(aminomethyl)phenyl)imidazo[1,2-a]pyridine-6-carboxamido)phenyl)acetic acid]

Row | IC50 [µM] | Compound
20 | < 1 | NCc1cccc(-c2cc(COc3ccccc3CC(=O)O)cc3c2cnn3CC2CC2)c1 [Compound 126h, 2-(2-((4-(3-(aminomethyl)phenyl)-1-(cyclopropylmethyl)-1H-indazol-6-yl)methoxy)phenyl)acetic acid]
21 | < 1 | NCc1cccc(-c2cc(COc3ccccc3CC(=O)O)cc3c2cnn3CC2CC2)c1F [Compound 127b, 2-(2-((4-(3-(aminomethyl)-2-fluorophenyl)-1-(cyclopropylmethyl)-1H-indazol-6-yl)methoxy)phenyl)acetic acid]
22 | < 1 | Cn1ncc2c(-c3cccc(CN)c3F)cc(COc3ccccc3CC(=O)O)cc21 [Compound 128g, 2-(2-((4-(3-(aminomethyl)-2-fluorophenyl)-1-methyl-1H-indazol-6-yl)methoxy)phenyl)acetic acid]
23 | < 1 | Cn1cc2c(-c3cccc(CN)c3F)cc(COc3ccccc3CC(=O)O)cc2n1 [Compound 129e, 2-(2-((4-(3-(aminomethyl)-2-fluorophenyl)-2-methyl-2H-indazol-6-yl)methoxy)phenyl)acetic acid]
24 | < 1 | NCc1cccc(-c2cc(COc3ccc(C4CC4)cc3CC(=O)O)cc3ccoc23)c1 [Compound 130g, 2-(2-((7-(3-(aminomethyl)phenyl)benzofuran-5-yl)methoxy)-5-cyclopropylphenyl)acetic acid]
25 | < 1 | Cn1ncc2c(-c3cccc(CN)c3)cc(COc3ccccc3CC(=O)O)cc21 [Compound 131b, 2-(2-((4-(3-(aminomethyl)phenyl)-1-methyl-1H-indazol-6-yl)methoxy)phenyl)acetic acid]
26 | < 1 | COCc1cc2cc(COc3ccccc3CC(=O)O)cc(-c3ccnc(CN)c3)c2o1 [Compound 132b, 2-(2-((7-(2-(aminomethyl)pyridin-4-yl)-2-(methoxymethyl)benzofuran-5-yl)methoxy)phenyl)acetic acid]
27 | < 1 | Cn1ccc2c(-c3ccnc(CN)c3)cc(COc3ccccc3CC(=O)O)cc21 [Compound 133c, 2-(2-((4-(2-(aminomethyl)pyridin-4-yl)-1-methyl-1H-indol-6-yl)methoxy)phenyl)acetic acid]
28 | < 1 | NCc1cccc(-c2cc(COc3ccccc3CC(=O)O)nc3ccoc23)c1F [Compound 134b, 2-(2-((7-(3-(aminomethyl)-2-fluorophenyl)furo[3,2-b]pyridin-5-yl)methoxy)phenyl)acetic acid]
29 | < 1 | Cn1ncc2c(-c3ccnc(CN)c3)cc(COc3ccccc3CC(=O)O)cc21 [Compound 135c, 2-(2-((4-(2-(aminomethyl)pyridin-4-yl)-1-methyl-1H-indazol-6-yl)methoxy)phenyl)acetic acid]
30 | < 1 | NCc1cccc(-c2cc(COc3ccccc3CC(=O)O)c(F)c3ccoc23)c1 [Compound 136e, 2-(2-((7-(3-(aminomethyl)phenyl)-4-fluorobenzofuran-5-yl)methoxy)phenyl)acetic acid]
31 | < 1 | NCc1cccc(-c2cc(COc3ccccc3CC(=O)O)c(F)c3ccoc23)c1F [Compound 137b, 2-(2-((7-(3-(aminomethyl)-2-fluorophenyl)-4-fluorobenzofuran-5-yl)methoxy)phenyl)acetic acid]
32 | < 1 | CNCc1cc2cc(COc3ccccc3CC(=O)O)cc(-c3cccc(CN)c3)c2o1 [Compound 138f, 2-(2-((7-(3-(aminomethyl)phenyl)-2-((methylamino)methyl)benzofuran-5-yl)methoxy)phenyl)acetic acid]
33 | < 1 | NCc1cccc(-c2cc(COc3ccccc3CC(=O)O)cc3cc(CN4CCOCC4)oc23)c1 [Compound 139c, 2-(2-((7-(3-(aminomethyl)phenyl)-2-(morpholinomethyl)benzofuran-5-yl)methoxy)phenyl)acetic acid]
34 | < 1 | NCc1cccc(-c2cc(COc3ccccc3CC(=O)O)cc3cc(Cn4ccnc4)oc23)c1 [Compound 140c, 2-(2-((2-((1H-imidazol-1-yl)methyl)-7-(3-(aminomethyl)phenyl)benzofuran-5-yl)methoxy)phenyl)acetic acid]
35 | < 1 | CN(C)Cc1cc2cc(COc3ccccc3CC(=O)O)cc(-c3cccc(CN)c3)c2o1 [Compound 141c, 2-(2-((7-(3-(aminomethyl)phenyl)-2-((dimethylamino)methyl)benzofuran-5-yl)methoxy)phenyl)acetic acid]
36 | < 1 | NCc1cccc(-c2nc(C(=O)Nc3cscc3CC(=O)O)c3cccn3n2)c1F [Compound 142d, 2-(4-(2-(3-(aminomethyl)-2-fluorophenyl)pyrrolo[2,1-f][1,2,4]triazine-4-carboxamido)thiophen-3-yl)acetic acid]
37 | > 10 | NCc1cccc(-c2nc(C(=O)Nc3ccoc3CC(=O)O)c3cccn3n2)c1F [Compound 143g, 2-(3-(2-(3-(aminomethyl)-2-fluorophenyl)pyrrolo[2,1-f][1,2,4]triazine-4-carboxamido)furan-2-yl)acetic acid]
